According to publication PMC11520566, “Discovery of pyrazole-based analogs as CDK2 inhibitors with apoptotic-inducing activity: design, synthesis and molecular dynamics study” (RSC Advances, 2024):

Legend:
[1] = tested on: HL-60(TB); experiment: NCI 60 five dose assay, Leukemia; type: cell-based, human
[2] = tested on: K-562; experiment: NCI 60 five dose assay, Leukemia; type: cell-based, human
[3] = tested on: MOLT-4; experiment: NCI 60 five dose assay, Leukemia; type: cell-based, human
[4] = tested on: HOP-62; experiment: NCI 60 five dose assay, Non-small cell lung cancer; type: cell-based, human
[5] = tested on: HOP-92; experiment: NCI 60 five dose assay, Non-small cell lung cancer; type: cell-based, human
[6] = tested on: HCT-15; experiment: NCI 60 five dose assay, Colon cancer; type: cell-based, human
[7] = tested on: KM12; experiment: NCI 60 five dose assay, Colon cancer; type: cell-based, human
[8] = tested on: SW-620; experiment: NCI 60 five dose assay, Colon cancer; type: cell-based, human
[9] = tested on: LOX IMVI; experiment: NCI 60 five dose assay, Melanoma; type: cell-based, human
[10] = tested on: UACC-62; experiment: NCI 60 five dose assay, Melanoma; type: cell-based, human
[11] = tested on: ACHN; experiment: NCI 60 five dose assay, Renal cancer; type: cell-based, human
[12] = tested on: UO-31; experiment: NCI 60 five dose assay, Renal cancer; type: cell-based, human
[13] = tested on: SF-268; experiment: NCI 60 single dose screen, CNS cancer; type: cell-based, human; details: single dose 10 μM
Procedure: (§1) The newly synthesized pyrazoles 2a–g, 7a–d, 8a and b, 9, and 10 were submitted to the National Cancer Institute (NCI) Developmental Therapeutics Program (http://www.dtp.nci.nih.gov) for assessment of their potential antiproliferative activity against a panel of NCI 60 cancer cell lines. All compounds were approved for screening against the approved 60 cancer cell lines at a single dose of 10 μM. The human cancer cell lines were derived from 9 variant cancer types including leukemia, melanoma, lung, colon, CNS, ovarian, renal, prostate and breast cancers. The results are presented as percentage of growth inhibition (GI%) of the screened compounds against the full panel of cell lines.
(§2) Under sterile conditions, the cell lines were grown in RPMI 1640 media (Gibco, NY, USA) supplemented with 10% fetal bovine serum (Biocell, CA, USA), and […] cell/mL was used to test the growth inhibition activity of the synthesized compounds. The compounds with concentrations ranging from 0.01 to 100 μM were prepared in phosphate buffer saline. Each compound was initially solubilized in dimethyl sulfoxide (DMSO); however, each final dilution contained less than 1% DMSO. Solutions of different concentrations (0.2 mL) were pipetted into the separate well of a microtiter tray in duplicate. […] After 48 h, the cells in each well were diluted 10 times with saline and counted using a Coulter counter. […]

[14] = tested on: SF-295; experiment: NCI 60 single dose screen, CNS cancer; type: cell-based, human; details: single dose 10 μM
Procedure: as §1, §2

[15] = tested on: HCT-116 cells; experiment: Flow cytometric analysis of apoptosis (Annexin V-FITC/PI); type: cell-based; details: 1.806 μM, 48 h
Procedure: For the detection of apoptosis in the treated cells, the Annexin V-FITC-apoptosis detection kit (PN IM3546) was used, followed by flow cytometric analysis according to the manufacturer's protocol. In this assay, HCT-116 cells were allowed to grow in a […] flask until 70–80% confluence. Then, the HCT-116 cells were treated with compound 4 for 48 h, followed by washing with PBS, and suspended in binding buffer. To […] of the cell suspension, […] of annexin V-FITC solution and […] of dissolved PI were added and incubated for 15 min in the dark. Then […] of ice-cold binding buffer was added and mixed gently. The flow cytometric analysis of the percentage of apoptotic cells was performed on a COULTER® EPICS® XL™ Flow Cytometer (USA).[35]

[16] = Homo sapiens, read-out: LC50 (the source's name)

## CC(=NNc1ccc(S(N)(=O)=O)cc1)c1ccc(NN=C2C(=O)NN=C2Nc2ccccc2)cc1 [Compound 4, 4-(2-(1-(4-(2-(5-oxo-3-(phenylamino)-1,5-dihydro-4H-pyrazol-4-ylidene)hydrazinyl)phenyl)ethylidene)hydrazinyl)benzene sulfonamide]
[1]; Homo sapiens
  GI50: 2.86 µM
[1]; [16]
  CC50: 60.5 µM
[1]; Log10 Concentration -4.0 Molar
  Percent Growth: -70%
[1]; Log10 Concentration -5.0 Molar
  Percent Growth: 21%
[1]; Log10 Concentration -6.0 Molar
  Percent Growth: 74%
[1]; Log10 Concentration -7.0 Molar
  Percent Growth: 87%
[1]; Log10 Concentration -8.0 Molar
  Percent Growth: 89%
[2]; Homo sapiens, K562
  GI50: 2.29 µM
[2]; Homo sapiens, K562, read-out: LC50 (the source's name)
  CC50: 22.8 µM
[2]; Log10 Concentration -4.0 Molar
  Percent Growth: -100%
[2]; Log10 Concentration -5.0 Molar
  Percent Growth: -22%
[2]; Log10 Concentration -6.0 Molar
  Percent Growth: 90%
[2]; Log10 Concentration -7.0 Molar
  Percent Growth: 87%
[2]; Log10 Concentration -8.0 Molar
  Percent Growth: 88%
[3]; Homo sapiens
  GI50: 1.64 µM
[3]; [16]
  CC50: 34.9 µM
[3]; Log10 Concentration -4.0 Molar
  Percent Growth: -69%
[3]; Log10 Concentration -5.0 Molar
  Percent Growth: -28%
[3]; Log10 Concentration -6.0 Molar
  Percent Growth: 71%
[3]; Log10 Concentration -7.0 Molar
  Percent Growth: 95%
[3]; Log10 Concentration -8.0 Molar
  Percent Growth: 96%
[4]; Homo sapiens
  GI50: 2.05 µM
[4]; [16]
  CC50: 30.3 µM
[4]; Log10 Concentration -4.0 Molar
  Percent Growth: -78%
[4]; Log10 Concentration -5.0 Molar
  Percent Growth: -24%
[4]; Log10 Concentration -6.0 Molar
  Percent Growth: 84%
[4]; Log10 Concentration -7.0 Molar
  Percent Growth: 95%
[4]; Log10 Concentration -8.0 Molar
  Percent Growth: 91%
[5]; Homo sapiens
  GI50: 1.3 µM
[5]; [16]
  CC50: 30.7 µM
[5]; Log10 Concentration -4.0 Molar
  Percent Growth: -89%
[5]; Log10 Concentration -5.0 Molar
  Percent Growth: -13%
[5]; Log10 Concentration -6.0 Molar
  Percent Growth: 58%
[5]; Log10 Concentration -7.0 Molar
  Percent Growth: 81%
[5]; Log10 Concentration -8.0 Molar
  Percent Growth: 74%
[6]; Homo sapiens
  GI50: 5.29 µM
[6]; [16]
  CC50: 42.9 µM
[6]; Log10 Concentration -4.0 Molar
  Percent Growth: -100%
[6]; Log10 Concentration -5.0 Molar
  Percent Growth: 36%
[6]; Log10 Concentration -6.0 Molar
  Percent Growth: 87%
[6]; Log10 Concentration -7.0 Molar
  Percent Growth: 98%
[6]; Log10 Concentration -8.0 Molar
  Percent Growth: 99%
[7]; Homo sapiens
  GI50: 2.66 µM
[7]; [16]
  CC50: 29.9 µM
[7]; Log10 Concentration -4.0 Molar
  Percent Growth: -100%
[7]; Log10 Concentration -5.0 Molar
  Percent Growth: -5%
[7]; Log10 Concentration -6.0 Molar
  Percent Growth: 90%
[7]; Log10 Concentration -7.0 Molar
  Percent Growth: 101%
[7]; Log10 Concentration -8.0 Molar
  Percent Growth: 98%
[8]; Homo sapiens
  GI50: 3.18 µM
[8]; [16]
  CC50: 58.8 µM
[8]; Log10 Concentration -4.0 Molar
  Percent Growth: -67%
[8]; Log10 Concentration -5.0 Molar
  Percent Growth: 7%
[8]; Log10 Concentration -6.0 Molar
  Percent Growth: 93%
[8]; Log10 Concentration -7.0 Molar
  Percent Growth: 102%
[8]; Log10 Concentration -8.0 Molar
  Percent Growth: 102%
[9]; Homo sapiens
  GI50: 2.13 µM
[9]; [16]
  CC50: 8.81 µM
[9]; Log10 Concentration -4.0 Molar
  Percent Growth: -100%
[9]; Log10 Concentration -5.0 Molar
  Percent Growth: -59%
[9]; Log10 Concentration -6.0 Molar
  Percent Growth: 103%
[9]; Log10 Concentration -7.0 Molar
  Percent Growth: 102%
[9]; Log10 Concentration -8.0 Molar
  Percent Growth: 98%
[10]; Homo sapiens
  GI50: 1.96 µM
[10]; [16]
  CC50: 9.6 µM
[10]; Log10 Concentration -4.0 Molar
  Percent Growth: -93%
[10]; Log10 Concentration -5.0 Molar
  Percent Growth: -53%
[10]; Log10 Concentration -6.0 Molar
  Percent Growth: 92%
[10]; Log10 Concentration -7.0 Molar
  Percent Growth: 93%
[10]; Log10 Concentration -8.0 Molar
  Percent Growth: 89%
[11]; Homo sapiens
  GI50: 5.9 µM
[11]; [16]
  CC50: 43 µM
[11]; Log10 Concentration -4.0 Molar
  Percent Growth: -100%
[11]; Log10 Concentration -5.0 Molar
  Percent Growth: 36%
[11]; Log10 Concentration -6.0 Molar
  Percent Growth: 96%
[11]; Log10 Concentration -7.0 Molar
  Percent Growth: 104%
[11]; Log10 Concentration -8.0 Molar
  Percent Growth: 94%
[12]; Homo sapiens
  GI50: 19.4 µM
[12]; [16]
  CC50: > 100 µM
[12]; Log10 Concentration -4.0 Molar
  Percent Growth: 2%
[12]; Log10 Concentration -5.0 Molar
  Percent Growth: 69%
[12]; Log10 Concentration -6.0 Molar
  Percent Growth: 81%
[12]; Log10 Concentration -7.0 Molar
  Percent Growth: 89%
[12]; Log10 Concentration -8.0 Molar
  Percent Growth: 84%
[13]
  GI%: 90.67%
[14]
  GI%: 94.88%
[15]; control 0.13
  Apoptosis, Late: 15.81%
[15]; control 0.35
  Apoptosis, Early: 4.63%
[15]; control 1.58
  Necrosis: 7.21%
[15]; control 2.06
  Apoptosis, Total: 27.65%
